BindingDB's records for doi:10.1016/j.ejmech.2014.01.032 (University of Milan, 2014)

Test: Inhibition of acetylcholinesterase in rat brain homogenate after 15 mins by Ellman assay

Compound	IC50 [µM]
C[N+](C)(CC#CCOC1=NOCC1)CCCCCC[N+]1(C)CCC(N2C(=O)c3cccc4cccc(c34)C2=O)CC1 (stereo unspecified)	22.9
CC(C)(CN1C(=O)c2cccc3cccc(c23)C1=O)C[N+](C)(C)CCCCCC[N+](C)(C)CCCN1C(=O)c2ccccc2C1=O [Naphmethonium]	41.7
C[N+](C)(CC#CCOC1=NOCC1)CCCCCCCC[N+](C)(C)CCCN1C(=O)c2cccc3cccc(c23)C1=O	10
C[N+](C)(CC#CCOC1=NOCC1)CCCCCCC[N+](C)(C)CCCN1C(=O)c2ccccc2C1=O	31.6
C[N+](C)(CC#CCOC1=NOCC1)CCCCCCCC[N+](C)(C)CCCN1C(=O)c2ccccc2C1=O	19.5
C[N+](C)(CC#CCOC1=NOCC1)CCCCCC[N+](C)(C)CCCN1C(=O)c2cccc3cccc(c23)C1=O	10.2
